Data as given in patent US20240366679A1, “METHOD FOR TREATING IMMUNE DISEASES USING CALCINEURIN INHIBITOR AND STEM CELLS” (KANGSTEM BIOTECH CO., LTD., priority 2021, published 2024).
“Also recorded” adds a separate entry of the source.

Columns and labels:
hUCB-MSC [1] = assay: MTT assay, cell viability of hUCB-MSC; format: cell-based; conditions: pimecrolimus various concentrations, 3 days, FIG. 2A
Procedure: First, the stem cells (hUCB-MSC) were cultured and treated with various concentrations of pimecrolimus for 3 days, and then the change in cell viability of hUCB-MSC were compared using the MTT assay (FIG. 2A).

hUCB-MSC [2] = assay: Proliferative capacity of hUCB-MSC; format: cell-based; conditions: pimecrolimus 0.01 to 100 ng/ml, 3 days; FIG. 2B
Procedure: Next, the stem cells (hUCB-MSC) were cultured and treated with various concentrations of pimecrolimus for 3 days, and then the change in proliferative capacity of hUCB-MSC were compared (FIG. 2B).

hUCB-MSC [3] = assay: Cell cycle analysis of hUCB-MSC; format: cell-based; conditions: pimecrolimus 0.01 to 100 ng/ml, 3 days; FIG. 2C
Procedure: Next, the stem cells (hUCB-MSC) were cultured and treated with various concentrations of pimecrolimus for 3 days, and then the change in cell cycle profile of hUCB-MSC were compared using cell cycle analysis (FIG. 2C).

hUCB-MSC [4] = assay: Cellular morphology of hUCB-MSC; format: cell-based; conditions: pimecrolimus 0.01 to 100 ng/ml, 3 days; FIG. 2D
Procedure: Next, the stem cells (hUCB-MSC) were cultured and treated with various concentrations of pimecrolimus for 3 days, and then the change in cellular morphology of hUCB-MSC were compared (FIG. 2D).

[5] = test system: hUCB-MSC surface markers (CD45, CD34, CD36, CD105, CD29, CD73); assay: Flow cytometry of surface markers of hUCB-MSC; format: cell-based; conditions: pimecrolimus 100 ng/ml, 3 days, FIG. 2E
Procedure: Lastly, the stem cells (hUCB-MSC) were cultured and treated with 100 ng/ml of pimecrolimus for 3 days, and then the expression levels of surface markers (CD45, CD34, CD36, CD105, CD29, CD73) of hUCB-MSC were compared using flow cytometry. (FIG. 2E).

[6] = test system: PBMC cells treated with Concanavalin A (ConA); assay: MLR analysis, immunosuppressive activity on ConA-treated PBMC; format: cell-based
Procedure: PBMC cells treated with Concanavalin A (ConA) were cultured and treated with pimecrolimus and mesenchymal stem cells (hUCB-MSC) individually or in combination, and then the immunosuppressive activity measured in each experimental group was compared (FIG. 3). In particular, PBMC cells that were not treated with ConA, not co-cultured with hUCB-MSC, and not treated with pimecrolimus were used as the negative control (NC), and as the positive control (PC) treated with ConA, PBMC cells that were not co-cultured with hUCB-MSC and not treated with pimecrolimus were used as the positive control (PC).
Specifically, PBMC cells treated with Concanavalin A (ConA) were cultured and treated with pimecrolimus and hUCB-MSC individually or in combination, and then the immunosuppressive activity measured in each experimental group was compared.
In particular, 10 experimental groups were set according to the combination pattern of pimecrolimus and hUCB-MSC (Table 1)

[7] = test system: TGF-β expressed in hUCB-MSCs; assay: TGF-β ELISA of hUCB-MSC supernatant; format: cell-based, human; conditions: pimecrolimus 0.01 to 100 ng/ml, 72 hours, FIG. 4A
Procedure: (§1) Specifically, hUCB-MSCs were seeded in a 6-well cell culture plate at a density of 1.5×10^5 cells per well. After 24 hours of incubation, hUCB-MSCs were treated with pimecrolimus at various concentrations and further incubated for 72 hours. After the incubation was completed, the supernatant was collected by centrifugation and the thus-obtained supernatant was applied to Human […] Quantikine ELISA (R&D Systems, Minneapolis, MN, USA) and Human PGE2. Quantikine ELISA (R&D Systems) to analyze the expression level of TGF-β or prostaglandin E2 (PGE2) (FIGS. 4A and 4B).

[8] = test system: PGE2 expressed in hUCB-MSCs; assay: PGE2 ELISA of hUCB-MSC supernatant; format: cell-based, human; conditions: pimecrolimus 0.01 to 100 ng/ml, 72 hours, FIG. 4B
Procedure: as §1

[9] = test system: COX2 expressed in hUCB-MSCs; assay: Western blot of COX2 in hUCB-MSC lysate; format: cell-based; conditions: pimecrolimus 0.01 to 100 ng/ml, 72 hours, GAPDH internal control, FIG. 4C
Procedure: hUCB-MSCs treated with pimecrolimus were obtained according to the method of Example 3-2, centrifuged to collect the precipitated cells, and then disrupted to obtain cell lysate. Subsequently, Western blot analysis was performed using the thus-obtained cell lysate and COX2 antibodies (FIG. 4C). In particular, GAPDH was used as an internal control.

SMILES: CC[C@@H]1/C=C(\C)C[C@H](C)C[C@H](OC)[C@H]2O[C@@](O)(C(=O)C(=O)N3CCCC[C@H]3C(=O)O[C@H](/C(C)=C/[C@@H]3CC[C@H](Cl)[C@H](OC)C3)[C@H](C)[C@@H](O)CC1=O)[C@H](C)C[C@@H]2OC [pimecrolimus]
- change in cell viability of hUCB-MSC (hUCB-MSC [1]): did not change the cell viability
- change in proliferative capacity of hUCB-MSC (hUCB-MSC [2]): did not change the proliferative capacity
- change in cell cycle profile of hUCB-MSC (hUCB-MSC [3]): did not change the cell cycle profile
- change in cellular morphology of hUCB-MSC (hUCB-MSC [4]): did not change the cellular morphology
- expression levels of surface markers of hUCB-MSC [5]: did not change the expression levels of surface markers
- immune activity of ConA-treated PBMC (immunosuppressive activity) ([6]; Example 3-1, treated individually or in combination, versus ConA positive control, FIG. 3): the immune activity was suppressed
- immunosuppressive activity, separate treatment ([6]; each treated alone, 3 to 7 days or 5 to 7 days (Experimental Groups 2 and 3; 5 and 9), FIG. 5A): comparatively superior over the immunosuppressive activity of hUCB-MSCs
- level of TGF-β expressed in hUCB-MSCs [7]: did not show a significant change
- level of PGE2 expressed in hUCB-MSCs [8]: rapidly reduced in proportion to the treatment concentrations
- level of COX2 expressed in hUCB-MSCs [9]: rapidly reduced in proportion to the treatment concentrations; also recorded: inhibit the expression of COX2
